Read-outs that look alike come from different tables or passages of the source.
Type: physicochemical
[1] = HPLC on reversed phase columns, method [a]: pH 2.7, 0.1% formic acid in water / acetonitrile, linear gradient 10% to 95% acetonitrile
[2] = HPLC on reversed phase columns, method [a]: pH 2.7, 0.1% formic acid in water and acetonitrile, linear gradient 10% to 95% acetonitrile
[3] = method [a]: HPLC/LC-MS on reversed phase at pH 2.7, 0.1% formic acid in water / acetonitrile, linear gradient 10% to 95% acetonitrile
[4] = method [a]: HPLC/LC-MS on reversed phase at pH 2.7, 0.1% formic acid in water / acetonitrile, gradient 10% to 95% acetonitrile

Compound	log P [2]	other results
CC1(C(=O)NCc2ncccn2)CC(c2ccc3ncc(Br)cc3c2)=NO1 (stereo not shown) [compound 661]		log P [1]: 2.13[a]
C#Cc1cnc2ccc(C3=NOC(C)(C(=O)NCc4ccnc(NC5CC5)c4)C3)cc2c1 (stereo not shown) [compound 809]	1.45[a]	
COc1cccc(CNC(=O)C2(C)CC(c3ccc4ncc(Br)cc4c3)=NO2)n1 (stereo not shown) [compound 667]		log P [1]: 3.11[a]
CC1(C(=O)NCc2ccncn2)CC(c2ccc3ncc(Br)cc3c2)=NO1 (stereo not shown) [compound 642]		log P [1]: 2.01[a]
CC1(C(=O)NCCC2CCCO2)CC(c2ccc3ncc(Br)cc3c2)=NO1 (stereo not shown) [compound 713]	2.39[a]	
C=Cc1cnc2ccc(C3=NOC(C)(C(=O)NCc4cn(CC)nc4C)C3)cc2c1 (stereo not shown) [compound 308]		log P [1]: 1.95[a]
C#Cc1cnc2ccc(C3=NOC(C)(C(=O)NCc4ccnc(SC(C)(C)C)c4)C3)cc2c1 (stereo not shown) [compound 796]	3.02[a]	
C#Cc1cnc2ccc(C3=NOC(C)(C(=O)NCc4ccc(OC)nc4)C3)cc2c1 (stereo not shown) [compound 681]	2.37[a]	
CC1(C(=O)NCC[Si](C)(C)C)CC(c2ccc3ncc(Br)cc3c2)=NO1 (stereo not shown) [compound 228]		log P [3]: 4.14^[a]
C#Cc1cnc2ccc(C3=NOC(C)(C(=O)NCc4cncc(F)c4)C3)cc2c1 (stereo not shown) [compound 781]	2.13[a]	
COc1ccc(CCNC(=O)C2(OC)CC(c3ccc4ncc(Br)cc4c3)=NO2)cc1OC (stereo not shown) [compound 712]	2.94[a]	
C#Cc1cnc2c(C)cc(C3=NOC(OC)(C(=O)NCc4cn(CCC)nc4C)C3)cc2c1 (stereo not shown) [compound 610]		log P [1]: 2.90[a]
CCn1cc(CNC(=O)C2(C)CC(c3cc(C)c4ncc(Br)cc4c3)=NO2)c(C)n1 (stereo not shown) [compound 580]		log P [1]: 2.96[a]
CCn1nc(C)c(NC(=O)C2(C)CC(c3ccc4ncc(Br)cc4c3)=NO2)c1C (stereo not shown) [compound 492]		log P [4]: 2.41[a]
Cn1cncc1CNC(=O)C1(C)CC(c2ccc3ncc(Br)cc3c2)=NO1 (stereo not shown) [compound 203]		log P [3]: 2.14^[a]
C#Cc1cnc2ccc(C3=NOC(C)(C(=O)NCC4CCCN4CC)C3)cc2c1 (stereo not shown) [compound 232]		log P [1]: 1.22^[a]
CC1(C(=O)NCC2CC(F)(F)C2)CC(c2ccc3ncc(Br)cc3c2)=NO1 (stereo not shown) [compound 754]	2.98[a]	
C#Cc1cnc2ccc(C3=NOC(C)(C(=O)NCCc4ccc(OC(F)(F)F)cc4)C3)cc2c1 (stereo not shown) [compound 209]		log P [3]: 3.55^[a]
C#Cc1cnc2ccc(C3=NOC(C)(C(=O)NC(C4CC4)C4CC4)C3)cc2c1 (stereo not shown) [compound 768]	3.21[a]	
CC1(C(=O)NCc2ccc3c(c2)OCC3)CC(c2ccc3ncc(Br)cc3c2)=NO1 (stereo not shown) [compound 123]		log P [3]: 3.17^[a]
CCn1cc(CNC(=O)C2(C[Si](C)(C)C)CC(c3ccc4ncc(Br)cc4c3)=NO2)c(C)n1 (stereo not shown) [compound 413]		log P [4]: 2.83[a]
CC1(C(=O)NCc2nnco2)CC(c2ccc3ncc(Br)cc3c2)=NO1 (stereo not shown) [compound 204]		log P [3]: 2.17^[a]
CCn1cc(CNC(=O)C2(C)CC(c3ccc4ncc(C#N)cc4c3)=NO2)c(C)n1 (stereo not shown) [compound 288]		log P [1]: 1.80[a]

Further lines, with some results ahead:

log P [2]	Compound	other results
3.21[a]	CCOc1ncccc1CNC(=O)C1(C)CC(c2ccc3ncc(Br)cc3c2)=NO1 (stereo not shown) [compound 788]	
2.62[a]	CSc1cc(CNC(=O)C2(C)CC(c3ccc4ncc(Br)cc4c3)=NO2)ccn1 (stereo not shown) [compound 799]	
3.37[a]	CCC(C)NC(=O)C1(C)CC(c2ccc3ncc(Br)cc3c2)=NO1 (stereo not shown) [compound 742]	
1.58[a]	CC1(C(=O)NCc2ccnc(NC3CC3)c2)CC(c2ccc3ncc(Br)cc3c2)=NO1 (stereo not shown) [compound 761]	
3.13[a]	CCn1cc(CNC(=O)C2(C)CC(c3ccc4ncc(Br)cc4c3)=NO2)c(C(F)(F)F)n1 (racemic) [compound 821]	
3.44[a]	CC(C)(C)Sc1cc(CNC(=O)C2(C)CC(c3ccc4ncc(Br)cc4c3)=NO2)ccn1 (stereo not shown) [compound 797]	
1.72[a]	CC1(C(=O)NCc2ccnc(O)c2)CC(c2ccc3ncc(Br)cc3c2)=NO1 (stereo not shown) [compound 765]	
3.15[a]	CC(C)CNC(=O)C1(C)CC(c2ccc3ncc(Br)cc3c2)=NO1 (stereo not shown) [compound 743]	

Source: patent US9510598B2, “Nitrogen-containing heterocyclic compounds for plant disease control” (BAYER CROPSCIENCE AG, priority 2012, dated 2016)
